# Patent publication US7807703B2, “Substituted aryl ketones” (Bayer CropScience AG, priority 2002, dated 2010)
# Assay: log P determination by reversed-phase HPLC (EEC Directive 79/831 Annex V.A8; acidic or neutral mobile phase)
# Assay type: physicochemical
# Settings: HPLC reversed-phase C18, 43° C., acidic range: 0.1% aqueous phosphoric acid, acetonitrile (marked a))
# How it was run: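 Reversed-phase C18 HPLC per EEC Directive 79/831 Annex V.A8 at 43° C. Linear gradient of 10% to 90% acetonitrile, run against 0.1% aqueous phosphoric acid for the acidic range (a) or 0.01 molar aqueous phosphate buffer for the neutral range (b).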
row,Compound,logP
1,CCn1ncc(C(=O)c2ccc(S(C)(=O)=O)c(CNOCc3ccccc3)c2Cl)c1O [Example 200],(I-2) logP = 2.31^a)

# Same assay, conditions: HPLC reversed-phase C18, 43° C.; acidic range: 0.1% aqueous phosphoric acid, acetonitrile gradient (marked a))
row,Compound,logP
1,O=C1CCCC(=O)C1C(=O)c1ccc(Cl)c(OCCNS(=O)(=O)c2cccs2)c1Cl [Example 35],(I-2) logP = 2.92^a)
2,O=C1CCCC(=O)C1C(=O)c1ccc(Cl)c(OCCNS(=O)(=O)CCl)c1Cl [Example 7],logP = 2.57^a)
3,CCn1ncc(C(=O)c2ccc(S(C)(=O)=O)c(CN(C)OC)c2Cl)c1O [Example 11],logP = 1.78^a)
4,CCN(Cc1c(Cl)ccc(C(=O)C2C(=O)CCCC2=O)c1Cl)OC [Example 148],logP = 3.63^a)

# Same assay, conditions: HPLC, reversed-phase C18, 43° C.; acidic range a): 0.1% aqueous phosphoric acid, acetonitrile, linear gradient 10% to 90% acetonitrile
row,Compound,logP
1,CCON(Cc1c(S(C)(=O)=O)ccc(C(=O)C2C(=O)CCC(C)(C)C2=O)c1Cl)CC1CCOC1 (stereo not drawn) [Example 446],(I-2) logP = 3.60^a)
2,CCn1ncc(C(=O)c2ccc(Cl)c(OCCNS(C)(=O)=O)c2Cl)c1O [Example 354],logP = 1.54^a)
3,CCON(Cc1c(S(C)(=O)=O)ccc(C(=O)C2C(=O)CCCC2=O)c1Cl)CC1CCOC1 (stereo not drawn) [Example 415],(I-2) logP = 2.84^a)
4,CC(C)ON(C)Cc1c(S(C)(=O)=O)ccc(C(=O)C2C(=O)CCCC2=O)c1Cl [Example 393],logP = 3.14^a)
5,COc1c(C(=O)C2C(=O)CCCC2=O)ccc(Cl)c1CN(C)S(C)(=O)=O [Example 472],logP = 2.20^a)
6,CON(Cc1cccnc1)Cc1c(S(C)(=O)=O)ccc(C(=O)c2cnn(C)c2O)c1Cl [Example 386],(I-2) logP = 0.64^a)
7,CON(Cc1c(S(C)(=O)=O)ccc(C(=O)C2C(=O)CCCC2=O)c1Cl)C1CCOC1 (stereo not drawn) [Example 409],(I-2) logP = 2.32^a)
8,CCn1ncc(C(=O)c2ccc(S(C)(=O)=O)c(CN(C)OCC3CC3)c2Cl)c1O [Example 443],(I-2) logP = 2.41^a)
9,CCn1ncc(C(=O)c2ccc(S(C)(=O)=O)c(CNOC3CCCC3)c2Cl)c1O [Example 422],(I-2) logP = 2.31^a)
10,C=CCN(Cc1c(S(C)(=O)=O)ccc(C(=O)c2cnn(CC)c2O)c1Cl)S(C)(=O)=O [Example 461],logP = 1.63^a)
11,CCn1ncc(C(=O)c2ccc(S(C)(=O)=O)c(CN(C)OCC3CC3)c2Cl)c1O [Example 445],(I-2) logP = 2.05^a)
12,CCn1ncc(C(=O)c2ccc(Cl)c(CN(C)OC)c2OC)c1O [Example 479],logP = 2.35^a)
13,CCS(=O)(=O)NCCOc1c(Br)ccc(C(=O)C2C(=O)CCCC2=O)c1C [Example 364],logP = 2.41^a)
14,CCN(Cc1c(S(C)(=O)=O)ccc(C(=O)C2C(=O)CCC(C)(C)C2=O)c1Cl)OC (stereo not drawn) [Example 405],(I-2) logP = 3.70^a)
15,CCN(Cc1c(Cl)ccc(C(=O)C2C(=O)CCCC2=O)c1OC)OC [Example 483],logP = 3.19^a)
16,CCN(Cc1c(S(C)(=O)=O)ccc(C(=O)C2C(=O)CCC(C)(C)C2=O)c1Cl)S(C)(=O)=O (stereo not drawn) [Example 466],(I-2) logP = 2.64^a)
17,CON(CC(=O)N(C)C)Cc1c(S(C)(=O)=O)ccc(C(=O)C2C(=O)CCCC2=O)c1Cl [Example 396],(I-2) logP = 1.93^a)
18,CCN(Cc1c(S(C)(=O)=O)ccc(C(=O)C2C(=O)CCC(C)(C)C2=O)c1Cl)OC(C)C (stereo not drawn) [Example 403],(I-2) logP = 4.36^a)
19,CCN(Cc1c(S(C)(=O)=O)ccc(C(=O)c2cnn(CC)c2O)c1Cl)OC(C)C [Example 404],logP = 2.79^a)
20,CS(=O)(=O)c1ccc(C(=O)C2C(=O)CCCC2=O)c(Cl)c1CN(CC1CCOC1)OC1CCCC1 (stereo not drawn) [Example 426],(I-2) logP = 3.53^a)
21,CCN(Cc1c(Cl)ccc(C(=O)c2cnn(CC)c2O)c1OC)OC [Example 485],logP = 2.97^a)
22,CCN(Cc1c(Cl)ccc(C(=O)C2C(=O)CCC(C)(C)C2=O)c1Cl)OC (stereo not drawn) [Example 481],(I-2) logP = 4.95^a)
23,CCn1ncc(C(=O)c2ccc(S(C)(=O)=O)c(CN(CC3CCOC3)OC)c2Cl)c1O (stereo not drawn) [Example 423],(I-2) logP = 1.97^a)
24,CN(Cc1c(Cl)ccc(C(=O)C2C(=O)CCC(C)(C)C2=O)c1Cl)S(C)(=O)=O (stereo not drawn) [Example 459],(I-2) logP = 3.01^a)
25,CON(Cc1c(S(C)(=O)=O)ccc(C(=O)C2C(=O)CCCC2=O)c1Cl)CC1CCOC1 (stereo not drawn) [Example 408],(I-2) logP = 2.50^a)

# Same assay, conditions: HPLC, reversed-phase C 18, 43° C.; acidic range: 0.1% aqueous phosphoric acid, acetonitrile (marked a) or acidic)
row,Compound,log P (acidic)
1,C=CCN(Cc1c(S(C)(=O)=O)ccc(C(=O)OC)c1Cl)OC [VIII-35],logPacidic = 2.87
2,COC(=O)c1ccc(S(C)(=O)=O)c(CN(Cc2ccccc2)OC)c1Cl [VIII-24],logPacidic = 3.42
3,CCON(C)Cc1c(S(C)(=O)=O)ccc(C(=O)OC)c1Cl [VIII-43],logPacidic = 2.64
4,COC(=O)c1ccc(S(C)(=O)=O)c(CN(C)OCC2CCCO2)c1Cl (stereo not drawn) [VIII-64],logPacidic = 2.51
5,COC(=O)c1ccc(S(C)(=O)=O)c(CN(OC)C(C)C)c1Cl [VIII-25],logPacidic = 3.13
6,COC(=O)c1ccc(S(C)(=O)=O)c(CN(OC)C2CCOCC2)c1Cl [VIII-60],logPacidic = 2.38
7,COC(=O)c1ccc(S(C)(=O)=O)c(CN(C)OCCOc2ccccc2)c1Cl [VIII-63],logPacidic = 3.37
8,COC(=O)c1ccc(S(C)(=O)=O)c(CN(OC)C(=O)C(C)C)c1Cl [VIII-51],logPacidic = 2.21
9,COC(=O)c1ccc(Br)c(OCCNS(C)(=O)=O)c1C [VIII-28],logPacidic = 2.20
10,COC(=O)c1ccc(S(C)(=O)=O)c(CN(OC)C(=O)C2CC2)c1Cl [VIII-52],logPacidic = 2.02

# Same assay, conditions: HPLC, reversed-phase C 18, 43° C.; mobile phase range not marked
Compound,"logP (HPLC, mobile phase not marked)",log P
CCn1ncc(C(=O)c2ccc(S(C)(=O)=O)c(CN(C)OC)c2Cl)c1O [Example 304],1.78,
CCn1ncc(C(=O)c2ccc(S(C)(=O)=O)c(CNOCc3ccccc3)c2Cl)c1O [Example 349],2.31,
CCOC(=O)c1ccc(Cl)c(OCCNS(=O)(=O)C(C)C)c1Cl [VIII-20],,logP = 2.86
CCN(Cc1c(S(C)(=O)=O)ccc(C(=O)c2cnn(C)c2O)c1Cl)OC [Example 310],1.84,
CCONCc1c(Cl)ccc(C(=O)OC)c1Cl [VIII-7],,logP = 2.77
CCCS(=O)(=O)NCCOc1c(Cl)ccc(C(=O)OCC)c1Cl [VIII-19],,logP = 2.92
CCOC(=O)c1ccc(Cl)c(OCCNS(=O)(=O)CC(F)(F)F)c1Cl [VIII-17],,logP = 3.08
CCOC(=O)c1ccc(Cl)c(OCCNS(=O)(=O)CC)c1Cl [VIII-15],,logP = 2.61
CON(Cc1ccccc1)Cc1c(S(C)(=O)=O)ccc(C(=O)c2cnn(C)c2O)c1Cl [Example 335],2.48,
CON(Cc1c(S(C)(=O)=O)ccc(C(=O)C2C(=O)CCCC2=O)c1Cl)C(C)C [Example 343],(I-2) 3.26,

# Same assay, conditions: reversed-phase C18 HPLC column; HPLC, reversed-phase C 18, 43° C.; acidic range: 0.1% aqueous phosphoric acid, acetonitrile (marked a) or acidic); read-out: log P (acidic)
row,Compound,chromatographic logP
1,COC(=O)c1ccc(S(C)(=O)=O)c(CN(OC)C(C)C)c1Cl [VIII-3],3.13
2,"CON(Cc1c(S(C)(=O)=O)ccc(C(=O)O)c1Cl)C(C)C [II-3, 2-chloro-4-methylsulphonyl-3-(N-methoxy-N-(1-methylethyl)aminomethyl)benzoic acid]",2.09

# Same assay, conditions: reversed-phase C18 HPLC column; HPLC, reversed-phase C 18, 43° C.; mobile phase range not marked; read-out: log P
row,Compound,chromatographic logP
1,"CCOC(=O)c1ccc(Cl)c(OCCN)c1Cl [ethyl 3-(2-aminoethoxy)-2,4-dichlorobenzoate]",1.08
2,"COC(=O)c1ccc(Cl)c(CN(C)OC)c1Cl [VIII-1, methyl 2,4-dichloro-3-(N-methoxy-N-methylaminomethyl)benzoate]",3.08
